The structures appear in SMILES notation.

This note sets out measurements from paper PMC11493283, “N^4-Hydroxycytidine/molnupiravir inhibits RNA virus-induced encephalitis by producing less fit mutated viruses” (PLOS Pathogens, 2024).

In one data set the test system is Cache Valley virus (CVV). Put plainly: Antiviral efficacy against Cache Valley virus in Vero cells, plaque assay. Format: cell-based. The settings on record: 24 hpi, read-out: EC50 infectious virus production. The method, then: (§1) Cells were seeded in 24-well plates (1 × 10^5 cells/well) and infected with LACV (0.1 MOI). At 1 hour post infection (hpi), medium was replaced with fresh medium containing 6 different concentrations for each of the drugs. RBV and FAV were tested at concentrations of 1, 3, 10, 30, 100, and 300 μM, while NHC was tested at concentrations of 0.1, 0.3, 1, 3, 10 and 30 μM. DMSO was used as vehicle control. At 24 hpi, the cell supernatant was harvested, centrifuged to eliminate cell debris and stored at −80 °C for sequencing (described below) and plaque assay following the method of Ojha et al. 2021 [32]. Quantified virus titers were plotted to represent antiviral efficacy. The EC50 (50% effective concentration representing a 50% reduction in virus titer) was determined by extrapolating a dose-response curve using GraphPad Prism 8 and 9.
(§2) We also evaluated the ability of NHC to inhibit the replication of two other orthobunyaviruses, Cache Valley virus (CVV) and Jamestown Canyon (JCV). JCV belongs to the same serogroup as LACV but causes neurological disease in both children and adults. CVV is a member of the Bunyamwera serogroup and is the most common orthobunyavirus in the United States. Infections were done following the same protocol as for Fig 1. […] Thus, NHC inhibited virus replication for multiple orthobunyaviruses in different serogroups with similar potency.

In data set [1] the test system is LACV. Put plainly: MPID-NGS mutation rate of LACV in cell culture. In kind it is cell-based, La Crosse virus. The settings on record: Vero cells; RBV, FAV: increase only at 100 μM; NHC also in hNSCs and N2a. The method, then:
as §1
We used a Primer ID (PID) library preparation approach with Illumina MiSeq next-generation sequencing (NGS) to examine the mutagenic effects of these drugs on viral RNA allowing deep coverage of the viral population while maintaining a low method error rate (1 in 10,000 nucleotides). We designed cDNA primers targeting a 372 bp region of the RdRp gene within the L segment (referred as L7 in the study), and included a second amplicon covering a 455 bp portion of the M segment (referred as M4 in the study). Each cDNA primer included a block of random nucleotides (11 bases long) as the Primer ID/unique molecular identifier (UMI). […] After gel purification/extraction of the PCR product (Qiagen MinElute Gel Extraction kit), the extracted libraries were quantified using a Qubit fluorimeter and subjected to Agilent TapeStation analysis. For each sequencing run, 24 quantified libraries were pooled for MiSeq 300 base paired-end sequencing at the UNC High Throughput Sequencing Facility. […] Each type of substitution rate was calculated against the wildtype sequence at the sequenced regions. The sequencing date were submitted to the National Center for Biotechnology Information (NCBI) Sequence Read Archive (SRA), accession number is PRJNA1092655.

In another data set the test system is Jamestown Canyon (JCV). Put plainly: Antiviral efficacy against Jamestown Canyon virus in Vero cells, plaque assay. In kind it is cell-based. As to conditions: 24 hpi, read-out: EC50 infectious virus production. The method, then: as §1, §2
The nature of a further data set: in vitro. Format: cell-based. The settings on record: MTT, 24h. The method, then:
Method: Cells were seeded in 96-well plates (1-2x10^4 cells/well) after attachment different concentrations of each drug containing fresh media were added to each well, in triplicate. DMSO was used as a control. At 24h post-treatment, MTT assays were carried out according to the manufacturer’s instructions (Invitrogen, ThermoFisher Scientific). The absorbance was measured using the Synergy 4 cell plate reader (BioTek) at 540 nm. This assay was used to estimate the drug-induced cytotoxicity using the following formula: (sample absorbance/DMSO absorbance) × 100%. The CC50 (50% cytotoxic concentration) was determined by extrapolating the dose–response curve.

The subject of data set [2] is LACV. Put plainly: Antiviral efficacy against LACV in Vero cells, virus titer by plaque assay. Format: cell-based. The settings on record: La Crosse virus, LACV 0.1 MOI, 24 hpi, read-out: EC50 (50% reduction in virus titer). The method, then:
as §1

In data set [3] the test system is LACV. Put plainly: Serial passage of LACV in presence of NHC in Vero cells (resistance selection). Format: cell-based, La Crosse virus. As to conditions: for EC50: La Crosse virus, Vero cells. As to the method: as §1
We used a digital scanner to scan the plaque assay plates. Digitized images were imported into FIJI/ImageJ v1.52n, and pixel calibration values were calculated based on the well diameter and corresponding digitized image. To quantify plaque size (surface area), wells with clearly isolated plaques were selected for segmentation and analysis. The image lookup table for each well was inverted followed by binarization prior to analysis, with a minimum area of 0.39 mm^2 to eliminate false positives due to slight variations in crystal violet staining. The measurements were imported into Microsoft Excel for data compilation, and graphed and analyzed using GraphPad Prism v9.3.1. Analysis of plaque size was done only when the plaque assays for different virus samples were done in parallel.
Vero cells were seeded at 5×10^5 cells/well in a 6-well plate for each passage. For the first passage, Vero cells were infected with LACV at MOIs of 10, 0.1, and 0.001 in 3 ml of medium, and treated with 0.1 μM of NHC or DMSO vehicle control. After 3 dpi, the virus inoculum was harvested from wells where more than 25% of cells were still attached to the well (using light microscopy). The harvested supernatants were centrifuged to clarify dead cells and then used to reinfect Vero cells at dilutions of 1:1,000, 1:100,000, and 1:10,000,000 and treated with 0.1 μM NHC for the first series of 5 passages where at each passage the culture with the highest dilution of virus that still gave rise to incomplete CPE (i.e. 25% of the cells still attached) was saved for the next passage. Second, third, and fourth series of 5 passages were treated with 0.2, 0.4 and 0.8 μM of NHC, respectively. After 20 passages in total, virus suspensions were collected, centrifuged, and frozen at −80°C to perform dose-dependent antiviral activity and plaque assays for virus titers (as described above).

Data set [4] deals with LACV. Put plainly: Antiviral efficacy against LACV in hNSCs, virus titer by plaque assay. Format: cell-based. As to conditions: La Crosse virus, LACV 0.1 MOI, 24 hpi, read-out: EC50 (50% reduction in virus titer). As to the method:
as §1

The subject of data set [5] is LACV. Put plainly: Antiviral efficacy against LACV in N2a cells, virus titer by plaque assay. In kind it is cell-based. As to conditions: La Crosse virus, LACV 0.1 MOI, 24 hpi, read-out: EC50 (50% reduction in virus titer). The method, then: as §1
[6] abbreviates: African green monkey, Vero cells.

`O=c1nc(NO)ccn1[C@@H]1O[C@H](CO)[C@@H](O)[C@H]1O` [NHC, N^4-hydroxycytidine]: the EC50 – broadly, the concentration at which the effect is half-maximal – in the data set with Cache Valley virus (CVV) stood at 0.25 µM; with Jamestown Canyon (JCV) it was 0.3 µM; with LACV [2], 0.57 µM; in the data set on LACV [3] (after 20 passages with 0.1 to 0.8 μM NHC, read-out: EC50 against NHC-selected LACV) it was 0.49 µM; in the data set on LACV [3] (after 20 passages, read-out: EC50 against control (DMSO) passaged LACV) it was 0.5 µM; with LACV [4], 1.2 µM. Moreover, in the data set with LACV [5], the EC50 was 1.5 µM. Moreover, the “mutation rate of LACV grown in presence of drug” value in the data set with LACV [1] was “dose-dependent relationship”. In addition, the CC50 – broadly, the concentration that lowers cell viability or growth by half – was found to be 203 µM in the data set “in vitro” (setting [6]) and 132 µM in the data set “in vitro” (human, hNSCs). Moreover, the “supernatant virus titer at end of selection lower than control passaged virus” value in the data set with LACV [3] (passage 20) was “approximately 15 fold”. For the same molecule, in the data set on LACV [3] (passage 20 virus stocks), the “average plaque size of virus passaged with NHC vs DMSO control” value was “significantly smaller”.
On to `NC(=O)c1ncn([C@@H]2O[C@H](CO)[C@@H](O)[C@H]2O)n1` [RBV, ribavirin], for which the “mutation rate of LACV grown in presence of drug” value in the data set on LACV [1] is reported as “did not see a significant increase in mutation rates”. Further, the CC50 is 1780 µM in the data set “in vitro” (setting [6]) and 1260 µM in “in vitro” (human, hNSCs). In addition, the figures for the EC50 in the data set on LACV [2], in the data set on LACV [4] and in the data set with LACV [5] were 42.7 µM, 27.7 µM and 3.8 µM, respectively.
